Tests used:
corn (Zea mays) = assay: Test F pre-/postemergence: corn; assay type: in vivo
How it was run: (§1)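 Visual response scores, 0 meaning no effect and 100 complete control, were assigned against untreated controls 14 to 21 days after treatment. Test chemicals in a surfactant-containing non-phytotoxic solvent were applied preemergence to seeded silt loam soil or postemergence to 2–18 cm plants in peat-based medium.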

Barnyardgrass = assay: Test C preemergence: barnyardgrass; assay type: in vivo, Echinochloa crus-galli
[1] = tested on: lambsquarters (Chenopodium album); assay: Test F pre-/postemergence: lambsquarters; assay type: in vivo; conditions: Preemergence
How it was run: as §1

[2] = tested on: morningglory (Ipomoea coccinea); assay: Test F pre-/postemergence: morningglory; assay type: in vivo; conditions: Preemergence
Text: Seeds of plant species selected from corn (Zea mays), soybean (Glycine max), velvetleaf (Abutilon theophrasti), lambsquarters (Chenopodium album), poinsettia, wild (wild poinsettia, Euphorbia heterophylla), pigweed, palmer (palmer pigweed, Amaranthus palmeri), waterhemp (common waterhemp, Amaranthus rudis), surinam grass (Brachiaria decumbens), crabgrass, Brazil (Brazilian crabgrass, Digitaria horizontalis), panicum, fall (fall panicum Panicum dichotomiflorum), crabgrass, large (large crabgrass, Digitaria sanguinalis), foxtail, giant (giant foxtail, Setaria faberii), foxtail, green (green foxtail Setaria viridis), goosegrass (Eleusine indica), ragweed (common ragweed, Ambrosia elatior), barnyardgrass (Echinochloa crus-galli), sandbur (southern sandbur, Cenchrus echinatus), arrowleaf sida (Sida rhombifolia), ryegrass, Italian (Italian ryegrass, Lolium multiflorum), dayflower, VA (Virginia (VA) dayflower, Commelina virginica), field bindweed (Convolvulus arvensis), cocklebur (common cocklebur, Xanthium strumarium), morningglory (Ipomoea coccinea), nightshade (eastern black nightshade, Solanum ptycanthum), kochia (Kochia scoparia), nutsedge, yellow (yellow nutsedge, Cyperus esculentus), johnsongrass (Sorghum halepense), smartweed (ladysthumb smartweed, Polygonum persicaria), and beggarticks (hairy beggarticks, Bidens pilosa), were planted into a silt loam soil and treated preemergence with test chemicals formulated in a non-phytotoxic solvent mixture which included a surfactant. At the same time, plants selected from these crop and weed species and also pigweed (Amaranthus retroflexus), waterhemp_RES1 (ALS/Triazine resistant common waterhemp, Amaranthus rudis) and waterhemp_RES2 (ALS/HPPD resistant common waterhemp, Amaranthus rudis) were planted in pots containing a planting medium comprising spaghnum peat moss, vermiculite, wetting agent and starter nutrients treated with postemergence applications of some of the test chemicals formulated in the same manner. Plants ranged in height from 2 to 18 cm for postemergence treatments (1- to 4-leaf stage).
Treated plants and controls were maintained in a greenhouse for 14 to 21 days, after which time all species were compared to controls and visually evaluated. Plant response ratings, summarized in Table E, are based on a scale of 0 to 100 where 0 is no effect and 100 is complete control. A dash (-) response means no test result.

[3] = Preemergence, 16 g ai/ha, scale 0 to 100 (0 no effect, 100 complete control)
[4] = Preemergence, 31 g ai/ha, scale 0 to 100 (0 no effect, 100 complete control)
[5] = Preemergence, 62 g ai/ha, scale 0 to 100
[6] = 31 g ai/ha, scale of 0 to 100, 0 is no effect, 100 is complete control
[7] = 62 g ai/ha, scale of 0 to 100, 0 is no effect, 100 is complete control
[8] = 125 g ai/ha, scale 0 to 100, 0 no effect, 100 complete control
[9] = 16 g ai/ha, scale 0 to 100 (0 no effect, 100 complete control)
[10] = 31 g ai/ha, scale 0 to 100 (0 no effect, 100 complete control)
[11] = 4 g ai/ha, scale 0 to 100, 0 no effect, 100 complete control
[12] = 8 g ai/ha, scale 0 to 100, 0 no effect, 100 complete control

| SMILES | Plant response rating, Corn (corn (Zea mays); [3]) | Plant response rating, Corn (corn (Zea mays); [4]) | Plant response rating, Corn (corn (Zea mays); [5]) | Plant response rating, Barnyardgrass (Barnyardgrass; [6]) | Plant response rating, Barnyardgrass (Barnyardgrass; [7]) | Plant response rating, Barnyardgrass (Barnyardgrass; [8]) | Plant response rating, Lambsquarters [1, 9] | Plant response rating, Lambsquarters [1, 10] | Plant response rating, Lambsquarters ([1]; 62 g ai/ha, scale 0 to 100) | Plant response rating, Morningglory [2, 9] | Plant response rating, Morningglory [2, 10] | also measured |
| --- | --- | --- | --- | --- | --- | --- | --- | --- | --- | --- | --- | --- |
| CCCc1nn(-c2ccc(F)cc2)nc1Cc1ccnc(C(F)(F)F)c1 [Compound 153] | 0 | 0 | 0 | 90 | 90 | 100 | 0 | 65 | 98 | 0 | 30 | Plant response rating, Corn (corn (Zea mays); Preemergence, 125 g ai/ha, scale 0 to 100): 0; Plant response rating, Corn (corn (Zea mays); Preemergence, 250 g ai/ha, scale 0 to 100): 10; Plant response rating, Lambsquarters ([1]; 125 g ai/ha, scale 0 to 100): 98; Plant response rating, Lambsquarters ([1]; 250 g ai/ha, scale 0 to 100): 98; Plant response rating, Morningglory ([2]; 125 g ai/ha, scale 0 to 100): 65; Plant response rating, Morningglory ([2]; 250 g ai/ha, scale 0 to 100): 65 |
| Cc1nn(-c2ccc(C(F)(F)F)c(F)c2)nc1Cc1ccnc(C(F)(F)F)c1 [Compound 162] | 0 | 0 | 0 | 98 | 100 | 100 | 98 | 98 | 98 | 20 | 30 | Plant response rating, Corn (corn (Zea mays); Postemergence, 4 g ai/ha, scale 0 to 100): 5; Plant response rating, Corn (corn (Zea mays); Postemergence, 8 g ai/ha, scale 0 to 100): 5; Plant response rating, Corn (corn (Zea mays); Postemergence, 16 g ai/ha, scale 0 to 100): 10; Plant response rating, Corn (corn (Zea mays); Postemergence, 31 g ai/ha, scale 0 to 100): 10; Plant response rating, Corn (corn (Zea mays); Postemergence, 62 g ai/ha, scale 0 to 100): 10; Plant response rating, Corn (corn (Zea mays); Preemergence, 4 g ai/ha, scale 0 to 100, 0 no effect, 100 complete control): 0; Plant response rating, Corn (corn (Zea mays); Preemergence, 8 g ai/ha, scale 0 to 100, 0 no effect, 100 complete control): 0; Plant response rating, Lambsquarters [1, 11]: 0; Plant response rating, Lambsquarters [1, 12]: 0; Plant response rating, Morningglory [2, 11]: 0; Plant response rating, Morningglory [2, 12]: 0 |

— patent publication US9302999B2, “Substituted triazoles as herbicides” (E. I. DU PONT DE NEMOURS AND COMPANY, priority 2012, dated 2016)
